In US20230079045A1 (priority 2019, published 2023):
Like-named read-outs stand apart in the source and are kept apart here.

Key:
[1] = test system: IFVA/Mal/302/54; assay: cytopathic effect (CPE) antiviral test in MDCK cells, IFVA/Mal/302/54; type: cell-based, influenza virus; details: unidentified influenza virus, MDCK, 120 h, read-out: EC50(IFVA/Mal/302/54), MDCK cells, CPE method, CCK-8 cell viability, 5 days
[2] = test system: IFVA/Weiss/43; assay: cytopathic effect (CPE) antiviral test in MDCK cells, IFVA/Weiss/43; type: cell-based, influenza virus
[3] = unidentified influenza virus, MDCK, 120 h, read-out: EC50(IFVA/Weiss/43), MDCK cells, CPE method, CCK-8 cell viability, 5 days

| Structure (SMILES) | EC50 [1] | EC50 [2, 3] | EC50 ([2]; read-out: EC50(IFVA/Weiss/43), MDCK cells, CPE method, CCK-8 cell viability, 5 days) |
| --- | --- | --- | --- |
| O=C(Nc1ccc2oc(-c3ccnc(C(=O)N4CCN(C(c5ccccc5)c5nnn(C(F)F)n5)CC4)c3)nc2c1)[C@@H]1C[C@@H]1F (mixture of isomers) [Compound 31, (1S,2S)-2-fluoro-N-(2-(2-(4-((2-difluoromethyl-2H-tetrazol-5-yl)(phenyl)methyl)piperazine-1-carbonyl)pyridin-4-yl)benzo[d]oxazol-5-yl)cyclopropane-1-carboxamide] | 7 nM | 2 nM | – |
| O=C(c1cc(-c2nc3cc(N4CCCC4=O)ccc3o2)ccn1)N1CCN(C(c2ccccc2)c2nnn(C(F)F)n2)CC1 (stereo not drawn) [Compound 37, 1-(2-(2-(4-((2-(difluoromethyl)-2H-tetrazol-5-yl)(phenyl)methyl)piperazine-1-carbonyl)pyridin-4-yl)benzo[d]oxazol-5-yl)pyrrolidin-2-one] | 22 nM | 17 nM | – |
| Cn1nnc(C(c2ccccc2)N2CCN(C(=O)c3cc(-c4nc5cc(NC(=O)C6(F)CC6)ccc5o4)ccn3)CC2)n1 (stereo not drawn) [Compound 194, 1-fluoro-N-(2-(2-(4-((2-methyl-2H-tetrazol-5-yl)(phenyl)methyl)piperazine-1-carbonyl)pyridin-4-yl)benzo[d]oxazol-5-yl)cyclopropane-1-carboxamide] | 25 nM | 24 nM | – |
| O=C(Nc1ccc2oc(-c3ccnc(C(=O)N4CCN(C(c5ccccc5)c5nnn(C(F)F)n5)CC4)c3)nc2c1)[C@H]1C[C@@H]1F (stereo partly drawn) [Compound 32, (1R,2S)-2-fluoro-N-(2-(2-(4-((2-difluoromethyl-2H-tetrazol-5-yl)(phenyl)methyl)piperazine-1-carbonyl)pyridin-4-yl)benzo[d]oxazol-5-yl)cyclopropane-1-carboxamide] | 3 nM | 26 nM | – |
| CC(=O)Nc1ccc2oc(-c3ccnc(C(=O)N4C[C@@H]5C[C@H]4CN5C(c4ccccc4)c4nnn(C)n4)c3)nc2c1 (stereo partly drawn) [Compound 14, N-(2-(2-((1S,4S)-5-((2-methyl-2H-tetrazol-5-yl)(phenyl)methyl)-2,5-diazabicyclo[2.2.1]heptane-2-carbonyl)pyridin-4-yl)benzo[d]oxazol-5-yl)acetamide] | 1100 nM | 383 nM | – |
| O=C(c1cc(-c2nc3cc(N4CCCC4)ccc3o2)ccn1)N1CCN(C(c2ccccc2)c2nnn(C(F)F)n2)CC1 (stereo not drawn) [Compound 71, (4-((2-(difluoromethyl)-2H-tetrazol-5-yl)(phenyl)methyl)piperazin-1-yl)(4-(5-(pyrrolidin-1-yl)benzo[d]oxazol-2-yl)pyridin-2-yl)methanone] | 52 nM | 31 nM | – |
| O=C(Nc1ccc2oc(-c3ccnc(C(=O)N4CCN(C(c5ccccc5)c5nnn(C(F)F)n5)CC4)c3)nc2c1)[C@@H]1C[C@H]1F (stereo partly drawn) [Compound 30, (1S,2R)-2-fluoro-N-(2-(2-(4-((2-difluoromethyl-2H-tetrazol-5-yl)(phenyl)methyl)piperazine-1-carbonyl)pyridin-4-yl)benzo[d]oxazol-5-yl)cyclopropane-1-carboxamide] | 27 nM | 12 nM | – |
| Cn1nnc(C(c2ccccc2)N2CCN(C(=O)c3cc(-c4nc5cc(O[C@H]6CCOC6)ccc5o4)ccn3)CC2)n1 (stereo partly drawn) [Compound 38, (4-((2-methyl-2H-tetrazol-5-yl)(phenyl)methyl)piperazin-1-yl)(4-(5-(((S)-tetrahydrofuran-3-yl)oxy)benzo[d]oxazol-2-yl)pyridin-2-yl)methanone] | 18 nM | – | 20 nM |
| CCC(=O)Nc1ccc2oc(-c3ccnc(C(=O)N4CCN(C(c5ccccc5)c5nnn(C(F)F)n5)CC4)c3)nc2c1 (racemic) [Compound 96, (R/S)—N-(2-(2-(4-((2-(difluoromethyl)-2H-tetrazol-5-yl)(phenyl)methyl)piperazine-1-carbonyl)pyridin-4-yl)benzo[d]oxazol-5-yl)propionamide] | 7 nM | 12 nM | – |
| CC(=O)Nc1ccc2oc(-c3ccnc(C(=O)N4C5CCC4CN(C(c4ccccc4)c4nnn(CCF)n4)C5)c3)nc2c1 (stereo not drawn) [Compound 22, N-(2-(2-(3-((2-(2-fluoroethyl)-2H-tetrazol-5-yl)(phenyl)methyl)-3,8-diazabicyclo[3.2.1]octane-8-carbonyl)pyridin-4-yl)benzo[d]oxazol-5-yl)acetamide] | 33 nM | 25 nM | – |
| CC(=O)Nc1ccc2oc(-c3ccnc(C(=O)N4C[C@H]5C[C@@H]4CN5C(c4ccccc4)c4nnn(C)n4)c3)nc2c1 (stereo partly drawn) [Compound 6a, N-(2-(2-((1R,4R)-5-((2-methyl-2H-tetrazol-5-yl)(phenyl)methyl)-2,5-diazabicyclo[2.2.1]heptane-2-carbonyl)pyridin-4-yl)benzo[d]oxazol-5-yl)acetamide] | > 10000 nM | > 7870 nM | – |
| CC(=O)Nc1ccc2oc(-c3ccnc(C(=O)N4CCN(C(c5ccccc5)c5nnn(C(F)F)n5)CC4)c3)nc2c1 (stereo not drawn) [Compound 40, N-(2-(2-(4-((2-(difluoromethyl)-2H-tetrazol-5-yl)(phenyl)methyl)piperazine-1-carbonyl)pyridin-4-yl)benzo[d]oxazol-5-yl)acetamide] | 24 nM | 16 nM | – |
| Cn1nnc(C(c2ccccc2)N2CCN(C(=O)c3cc(-c4nc5cc(NC(=O)[C@H]6C[C@H]6F)ccc5o4)ccn3)CC2)n1 (stereo partly drawn) [Compound 28, (1R,2R)-2-fluoro-N-(2-(2-(4-((2-methyl-2H-tetrazol-5-yl)(phenyl)methyl)piperazine-1-carbonyl)pyridin-4-yl)benzo[d]oxazol-5-yl)cyclopropane-1-carboxamide] | 27 nM | 17 nM | – |
| CC(=O)Nc1ccc2oc(-c3ccnc(C(=O)N4CC5CCC(C4)N5C(c4ccccc4)c4nnn(C)n4)c3)nc2c1 (stereo not drawn) [Compound 1, N-(2-(2-(8-((2-methyl-2H-tetrazol-5-yl)(phenyl)methyl)-3,8-diazabicyclo[3.2.1]octane-3-carbonyl)pyridin-4-yl)benzo[d]oxazol-5-yl)acetamide] | 573 nM | 480 nM | – |
| O=C(Nc1ccc2oc(-c3ccnc(C(=O)N4CCN(C(c5ccccc5)c5nnn(C(F)F)n5)CC4)c3)nc2c1)C1CC1(F)F (single isomer, unassigned) [Compound 82, (R/S)—N-(2-(2-(4-((R/S)-(2-(difluoromethyl)-2H-tetrazol-5-yl)(phenyl)methyl)piperazine-1-carbonyl)pyridin-4-yl)benzo[d]oxazol-5-yl)-2,2-difluorocyclopropane-1-carboxamide] | 11 nM | 7 nM | – |
| CC(=O)Nc1ccc2oc(-c3ccnc(C(=O)N4CCN(C(c5cccc(F)c5)c5nnn(C)n5)CC4)c3)nc2c1 (stereo not drawn) [Compound 11, N-(2-(2-(4-((3-fluorophenyl)(2-methyl-2H-tetrazol-5-yl)methyl)piperazine-1-carbonyl)pyridin-4-yl)benzo[d]oxazol-5-yl)acetamide] | 260 nM | 173 nM | – |
| CC(=O)Nc1ccc2oc(-c3ccnc(C(=O)N4CC5(C4)CN(C(c4ccccc4)c4nnn(C)n4)C5)c3)nc2c1 (stereo not drawn) [Compound 10, N-(2-(2-(6-((2-methyl-2H-tetrazol-5-yl)(phenyl)methyl)-2,6-diazaspiro[3.3]heptane-2-carbonyl)pyridin-4-yl)benzo[d]oxazol-5-yl)acetamide] | > 10000 nM | > 10000 nM | – |
| Cn1nnc(C(c2ccccc2)N2CC3CC(C2)N3C(=O)c2cc(-c3nc4cc(NC(=O)C5CC5)ccc4o3)ccn2)n1 (stereo not drawn) [Compound 21, N-(2-(2-(3-((2-methyl-2H-tetrazol-5-yl)(phenyl)methyl)-3,6-diazabicyclo[3.1.1]heptane-6-carbonyl)pyridin-4-yl)benzo[d]oxazol-5-yl)cyclopropanecarboxamide] | 436 nM | 163 nM | – |
| Cn1ccnc1-c1ccc2oc(-c3ccnc(C(=O)N4CCN(C(c5ccccc5)c5nnn(C(F)F)n5)CC4)c3)nc2c1 (racemic) [Compound 88, (R/S)-(4-((2-(difluoromethyl)-2H-tetrazol-5-yl)(phenyl)methyl)piperazin-1-yl)(4-(5-(1-methyl-1H-imidazol-2-yl)benzo[d]oxazol-2-yl)pyridin-2-yl)methanone] | 2 nM | 2 nM | – |
| O=C(Nc1ccc2oc(-c3ccnc(C(=O)N4CCN(C(c5ccccc5)c5nnn(C(F)F)n5)CC4)c3)nc2c1)[C@H]1C[C@H]1F (stereo partly drawn) [Compound 33, (1R,2R)-2-fluoro-N-(2-(2-(4-((2-difluoromethyl-2H-tetrazol-5-yl)(phenyl)methyl)piperazine-1-carbonyl)pyridin-4-yl)benzo[d]oxazol-5-yl)cyclopropane-1-carboxamide] | 31 nM | 16 nM | – |
| Cn1nnc(C(c2ccccc2)N2CCN(C(=O)c3cc(-c4nc5cc(NC(=O)[C@@H]6C[C@@H]6F)ccc5o4)ccn3)CC2)n1 (stereo partly drawn) [Compound 26, (1S,2S)-2-fluoro-N-(2-(2-(4-((2-methyl-2H-tetrazol-5-yl)(phenyl)methyl)piperazine-1-carbonyl)pyridin-4-yl)benzo[d]oxazol-5-yl)cyclopropane-1-carboxamide] | 20 nM | 3 nM | – |
| CS(=O)(=O)Nc1ccc2oc(-c3ccnc(C(=O)N4CCN(C(c5ccccc5)c5nnn(C(F)F)n5)CC4)c3)nc2c1 (stereo not drawn) [Compound 34] | > 10000 nM | > 10000 nM | – |
| O=C(Nc1ccc2oc(-c3ccnc(C(=O)N4CCN(C(c5ccccc5)c5nnn(C(F)F)n5)CC4)c3)nc2c1)C1CC1 (racemic) [Compound 196, (R/S)—N-(2-(2-(4-((2-(difluoromethyl)-2H-tetrazol-5-yl)(phenyl)methyl)piperazine-1-carbonyl)pyridin-4-yl)benzo[d]oxazol-5-yl)cyclopropanecarboxamide] | 8 nM | 6 nM | – |
| CC(=O)Nc1ccc2oc(-c3ccnc(C(=O)N4C5CCC4CN(C(c4ccccc4)c4nnn(C(F)F)n4)C5)c3)nc2c1 (stereo not drawn) [Compound 17, N-(2-(2-(3-((2-(difluoromethyl)-2H-tetrazol-5-yl)(phenyl)methyl)-3,8-diazabicyclo[3.2.1]octane-8-carbonyl)pyridin-4-yl)benzo[d]oxazol-5-yl)acetamide] | 22 nM | 9 nM | – |
